Experimental data: article PMC7822874, “Chemoprotective antimalarials identified through quantitative high-throughput screening of Plasmodium blood and liver stage parasites” (Scientific Reports, 2021)

System: Plasmodium falciparum Dd2 asexual blood stage parasites
Assay: microbe, parasite or virus in culture
Parameters: species or system Plasmodium falciparum Dd2 in human erythrocytes; single determination (one 11-point concentration-response curve)
Details: Plasmodium falciparum, DD2, Erythrocyte, 72 h; read-out: AC50

Work on COc1ccccc1-c1n[nH]c2ncc(-c3cnn(C)c3)nc12 [NCGC00419074-01] yielded an AC50 of 17.2 µM.
COc1ccc(-c2n[nH]c3ncc(-c4cccnc4)nc23)cc1F [NCGC00419143-01] gave an AC50 of 3.85 µM.
Work on COc1ccc(-c2n[nH]c3ncc(-c4ccc([S+](C)(=O)[O-])cc4)nc23)c(C)c1 [NCGC00419180-01] yielded an AC50 of 15.3 µM.
With O=C1c2cc(N3CCOCC3)nc(-c3ccccc3)c2CN1Cc1ccccc1 [NCGC00419273-01] the AC50 was 21.7 µM.
With CN1CCC2(C1)CN(Cc1ccccc1)c1ccc(C(=O)Nc3ccc(F)cc3)cc12 (stereo not drawn) [NCGC00419355-01] the AC50 was 19.3 µM.
In the case of CN1CC2(CCCN(CC3CC3)C2)c2cc(C(=O)NCCOc3ccccc3)ccc21 (stereo not drawn) [NCGC00419362-01], the AC50 is reported as 17.2 µM.
CC(C)(Oc1nn(CC2CC2)c2ccc(CN3CCCC3)cc12)C(N)=O [NCGC00419502-01] showed an AC50 of 13.7 µM.
CC(C)CNC(=O)C(C)(C)Oc1nn(CC2CC2)c2ccc(CN3CCCC3)cc12 [NCGC00419534-01] showed an AC50 of 19.3 µM.
With CN1CCN(C(=O)C(C)(C)Oc2nn(Cc3cccc(Cl)c3)c3ccccc23)CC1 [NCGC00419545-01] the AC50 was 7.69 µM.
Molecule COC1CCN(C(=O)C(C)(C)Oc2nn(CC3CC3)c3ccc(CN4CCCC4)cc23)CC1 [NCGC00419576-01] has an AC50 of 9.44 µM.
Molecule COCc1ccc2c(c1)c(OC(C)(C)C(=O)N1CCOCC1)nn2Cc1cccc(OC)c1 [NCGC00419580-01] has an AC50 of 8.41 µM.
Molecule CC(C)(Oc1nn(Cc2cccc(Cl)c2)c2ccccc12)C(=O)NCCN1CCOCC1 [NCGC00419620-01] has an AC50 of 5.31 µM.
With COCc1ccc2c(c1)c(OC(C)(C)C(=O)N1CCN(CCO)CC1)nn2Cc1ccccc1 [NCGC00419658-01] the AC50 was 9.44 µM.
Molecule COc1cc2c(cc1OCc1ccccc1)N([S+](=O)([O-])c1cccnc1)CC21CCN(C)CC1 [NCGC00419860-01] has an AC50 of 10.6 µM.
For COc1cc2c(cc1OCc1cccnc1)N(C(=O)c1ccc(Oc3ccccc3)cc1)CC21CCN(CC(=O)O)CC1 [NCGC00419910-01], the AC50 was 5.96 µM.
In the case of CC(C)c1ccc(CC(=O)N2CCCc3ncc(C(=O)NCCc4c[nH]c5ccccc45)cc32)cc1 [NCGC00420032-01], the AC50 is reported as 15 µM.
With COc1cccc(CC(=O)N2CCCn3nc(C)c(-c4ccccc4OCc4ccccc4)c32)c1 [NCGC00420361-01] the AC50 was 9.44 µM.
Cc1nn2c(c1-c1ccccc1[S+](C)(=O)[O-])N(CCC(C)C)CCC2 [NCGC00420381-01] was tested, and the AC50 was 9.68 µM.
For CC(C)C(=O)NCC1CN(Cc2ccccc2)C(=O)c2c(ccnc2-c2ccc(OCC(=O)O)cc2)O1 (stereo not drawn) [NCGC00420601-01], the AC50 was 2.11 µM.
Work on COc1ccc(OC)c([S+](=O)([O-])NC[C@H]2C[C@@H]3CCN2C[C@@H]3c2cc(-c3ccc(F)cc3)nn2C)c1 [NCGC00420960-01] yielded an AC50 of 6.68 µM.
Work on COc1ccc(-c2cc(C[C@@H]3CC[C@H](O)[C@@H](CNCc4ccccc4OC)O3)no2)cc1 [NCGC00421057-01] yielded an AC50 of 3.44 µM.
O=C(NC[C@H]1C[C@@H]2CC[N@]1C[C@@H]2CN1CCC(Cc2ccccc2)CC1)c1ccccc1 [NCGC00421103-01] was tested, and the AC50 was 7.69 µM.
COc1ccc(C(=O)Nc2nc3c(s2)C[C@@H]2[C@](C)(CO)[C@H](O)CC[C@@]2(C)[C@@H]3CC(=O)NCc2ccco2)cc1 [NCGC00421299-01] gave an AC50 of 2.66 µM.
For COC(=O)[C@@H]1Cc2c([nH]c3ccccc23)[C@H]2C[C@H](N3CCCCC3)C[C@@H](c3ccccc3F)N21 [NCGC00421326-01], the AC50 was 5.96 µM.
Work on CC1=C[C@@H](CN2CCC(C)CC2)[C@H](C(C)C)C[C@H]1Cc1nnc(-c2cccnc2)o1 [NCGC00421463-01] yielded an AC50 of 15.3 µM.
Work on COCCN1C(=O)c2ccccc2C(C(=O)Nc2nc3ccccc3[nH]2)C12CCCCC2 (stereo not drawn) [NCGC00423176-01] yielded an AC50 of 4.73 µM.
In the case of Cc1nnc(NC(=O)C2c3ccccc3C(=O)N(CC(C)C)C23CCCCC3)s1 (stereo not drawn) [NCGC00423223-01], the AC50 is reported as 15 µM.
Work on CC(C)CN1C(=O)c2ccccc2C(C(=O)Nc2nccs2)C12CCCC2 (stereo not drawn) [NCGC00423343-01] yielded an AC50 of 8.41 µM.
COCCN1C(=O)c2ccccc2C(C(=O)Nc2nc3ccccc3[nH]2)C12CCCC2 (stereo not drawn) [NCGC00423488-01] gave an AC50 of 4.22 µM.
O=C(Nc1nccs1)C1c2ccccc2C(=O)N(C2CCCC2)C12CCCC2 (stereo not drawn) [NCGC00423502-01] gave an AC50 of 4.22 µM.
In the case of CCc1nc(NC(=O)C2c3ccccc3C(=O)N(CCOC)C23CCCC3)sc1C (stereo not drawn) [NCGC00423528-01], the AC50 is reported as 5.96 µM.
O=C(N[C@H](c1ccccn1)[C@H]1C[C@H](O)C1)c1cc(=O)n(-c2ccccc2)[nH]1 [NCGC00423856-01] was tested, and the AC50 was 9.44 µM.
Work on COc1ccc(-c2ccccc2NC(=O)C2CCCN(Cc3c(O)cccc3OC)C2)cc1 (stereo not drawn) [NCGC00425458-01] yielded an AC50 of 2.11 µM.
O=C(Nc1ccc2c(N3CCCC3)ncnc2c1)c1ccc(Br)cc1 [NCGC00425477-01] was tested, and the AC50 was 4.73 µM.
O=C(Nc1ccc2c(N3CCCCC3)ncnc2c1)c1ccc(F)c(F)c1 [NCGC00425519-01] gave an AC50 of 4.73 µM.
Work on O=C(Nc1ccc2c(N3CCOCC3)ncnc2c1)c1cccc(Cl)c1 [NCGC00425551-01] yielded an AC50 of 4.73 µM.
COc1cc(F)ccc1CNCc1cccnc1N1CCOCC1 [NCGC00425822-01] gave an AC50 of 10.6 µM.
CN(Cc1ccc(-n2cccn2)cc1)CC1CCN(CCc2ccc(F)cc2)CC1 [NCGC00425928-01] showed an AC50 of 10.6 µM.
COc1ccc(CN2CCC(CO)(CCCc3ccccc3)CC2)c(Cl)c1OC [NCGC00426399-01] gave an AC50 of 8.41 µM.
For CN(Cc1ccccc1)Cc1ccccc1OCC(O)CN1CCCCC1 (stereo not drawn) [NCGC00426411-01], the AC50 was 1.5 µM.
For Cc1ccc(NC(=O)c2cnc(-c3ccccc3)nc2-c2ccncc2)c(Br)c1 [NCGC00426434-01], the AC50 was 9.44 µM.
With Cc1cc(CN2CCC(CO)(Cc3ccccc3Cl)CC2)cc(C)c1O [NCGC00426527-01] the AC50 was 16.8 µM.
For OCc1ccc(CN2CCCC(CCc3c(F)cccc3F)C2)o1 (stereo not drawn) [NCGC00426759-01], the AC50 was 4.22 µM.
In the case of O=C(CCC1CCN(Cc2cccc3c2OCO3)CC1)NCc1cccc(C(F)(F)F)c1 [NCGC00426823-01], the AC50 is reported as 3.76 µM.
COCCNC(=O)c1ccc(OC2CCN(C/C=C/c3ccc(F)cc3)CC2)c(Cl)c1 [NCGC00426935-01] was tested, and the AC50 was 10.6 µM.
O=C(c1ccccc1OCC1CCCN(Cc2ccncc2F)C1)N1CCCCC1 (stereo not drawn) [NCGC00427046-01] was tested, and the AC50 was 10.6 µM.
Molecule O=C(c1ccccc1OCC1CCCN(Cc2ccncc2F)C1)N1CCCC1 (stereo not drawn) [NCGC00427122-01] has an AC50 of 10.6 µM.
Cn1cc(CN2CCCC(COc3ccccc3C(=O)N3CCCC3)C2)c2ccccc21 (stereo not drawn) [NCGC00427140-01] gave an AC50 of 9.44 µM.
CCn1cc(CN2CCCC(COc3ccccc3C(=O)N3CCCC3)C2)c2ccccc21 (stereo not drawn) [NCGC00427142-01] gave an AC50 of 8.41 µM.
With O=C(NC1CC1)c1ccccc1OCC1CCCN(Cc2cccc3[nH]ccc23)C1 (stereo not drawn) [NCGC00427156-01] the AC50 was 5.96 µM.
O=C(NCC1CCCN(Cc2cccc(-c3ccco3)c2)C1)c1cccs1 (stereo not drawn) [NCGC00427501-01] gave an AC50 of 6.68 µM.
Work on COc1cccc(CN2CCCC(NCc3cc(C)ccc3-n3cccn3)C2)c1 (stereo not drawn) [NCGC00427605-01] yielded an AC50 of 2.99 µM.
OC(COc1ccccc1CNCCc1ccccc1)CN1CCSCC1 (stereo not drawn) [NCGC00427853-01] gave an AC50 of 2.11 µM.
O=C(CCC1CCCN(Cc2cccn2-c2cccnc2)C1)Nc1ccccc1F (stereo not drawn) [NCGC00427855-01] was tested, and the AC50 was 6.68 µM.
Work on Cc1cccc(CNCc2ccccc2OCC(O)CN2CCSCC2)c1 (stereo not drawn) [NCGC00428382-01] yielded an AC50 of 1.5 µM.
For CCOC(=O)C1(Cc2ccc(Cl)cc2)CCN(Cc2ccc(OC)cc2O)CC1 [NCGC00428386-01], the AC50 was 0.188 µM.
O=C(CCC[C@H]1NC[C@@H]2C[C@H]1CN(Cc1ccccc1)C2)NCCCN1CCCc2ccccc21 [NCGC00428635-01] was tested, and the AC50 was 10.6 µM.
